Measured values from patent publication US20250099420A1, “SMALL MOLECULE MODULATORS OF GPR139 COMPLEX” (University of Florida Research Foundation, Incorporated, priority 2022, published 2025).
Like-named read-outs stand apart in the source and are kept apart here.

How the values were obtained:
[1] = tested on: parental HEK cells; test: HEK parental Agonist Counterscreen Assay (non-transfected cells); type: cell-based; settings: for Averaged Max % Response (±St. Dev.): activity relative to known control
From the text: The high control for the agonist counterscreen was Forskolin not acetylcholine.

[2] = biological target: T1, GPR139 (Homo sapiens, UniProt Q6DWJ6); test: GPR139 Agonist titration / agonist counterscreen assay (calcium detection, HEK-GPR139 cells); type: cell-based; design: expressed in transfected cells; host or cells: HEK Aequorin cells, Maxcyte transient transfection; settings: GPR139 Agonist Activity; for Averaged Max % Response (±St. Dev.): activity relative to known control; for EC50: read-out: EC50
T1 sequence (Q6DWJ6 1-353): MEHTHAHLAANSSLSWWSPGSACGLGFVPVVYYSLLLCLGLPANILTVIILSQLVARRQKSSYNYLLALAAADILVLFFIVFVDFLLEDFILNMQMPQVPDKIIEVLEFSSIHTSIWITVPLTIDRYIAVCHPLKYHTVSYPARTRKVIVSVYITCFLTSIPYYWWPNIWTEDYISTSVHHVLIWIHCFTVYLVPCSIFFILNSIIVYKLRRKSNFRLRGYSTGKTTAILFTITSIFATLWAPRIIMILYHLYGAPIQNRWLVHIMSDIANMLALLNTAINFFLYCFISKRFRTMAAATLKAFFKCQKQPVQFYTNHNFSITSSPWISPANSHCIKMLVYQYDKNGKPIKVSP
Description: GPR activity was assessed using a calcium detection assay. […] Negative control samples were treated with DMSO. […] Intracellular calcium was measured using Calcium 5.

[3] = Homo sapiens, HEK293, HEK Agonist Activity section of Table 4 (parental HEK counterscreen)
[4] = values printed in E-notation without unit
[5] = HEK Agonist Activity section of Table 4 (parental HEK counterscreen)

O=C(NCCn1ccc2ccccc21)c1cccs1 [SR-01000124129]
Lipophilic Efficiency (logD) ([1]; HEK Agonist Activity section): 1.77
Lipophilic Efficiency (logP) ([1]; HEK Agonist Activity section): 1.77
Averaged Max % Response (±St. Dev.) ([1]; HEK Agonist Activity section): −9.08 ± 5.27%
EC50 [1, 3]: > 14.1 µM
Averaged Max % Response (±St. Dev.) [2]: 84.79 ± 6.25%
Lipophilic Efficiency (logD) ([2]; based on logD): 3.83
Lipophilic Efficiency (logP) ([2]; based on logP): 3.83
Hill Slope ([2]; fitted dose-response curve): 0.88
Efficiency Ligand ([2]; ligand efficiency): 0.51
EC50 [2, 4]: 0.123 µM

O=C(NCCn1ccc2ccccc21)c1cccc(Cl)c1 [SR-01000124131]
Lipophilic Efficiency (logD) ([1]; HEK Agonist Activity section): 1.08
Lipophilic Efficiency (logP) ([1]; HEK Agonist Activity section): 1.08
Averaged Max % Response (±St. Dev.) ([1]; HEK Agonist Activity section): −0.13 ± 10.83%
EC50 [1, 3]: > 14.1 µM
Efficiency Ligand [2]: 0.42
Hill Slope [2]: 0.85
Lipophilic Efficiency (logD) [2]: 2.55
Lipophilic Efficiency (logP) [2]: 2.55
EC50 ([2]; HEK-GPR139 cells): 0.472 µM
Averaged Max % Response (±St. Dev.) [2]: 93.55 ± 12.47%

O=C(NCCn1ccc2ccccc21)c1cccc(Br)c1 [SR-01000124135]
Lipophilic Efficiency (logD) ([1]; HEK Agonist Activity section): 0.91
Lipophilic Efficiency (logP) ([1]; HEK Agonist Activity section): 0.91
Averaged Max % Response (±St. Dev.) ([1]; HEK Agonist Activity section): 7.54 ± 4.78%
EC50 [1, 3]: > 14.1 µM
Averaged Max % Response (±St. Dev.) [2]: 71.94 ± 4.54%
Lipophilic Efficiency (logD) ([2]; based on logD): 2.76
Lipophilic Efficiency (logP) ([2]; based on logP): 2.76
Hill Slope ([2]; fitted dose-response curve): 0.57
Efficiency Ligand ([2]; ligand efficiency): 0.45
EC50 [2, 4]: 0.197 µM

CC(Oc1ccccc1)C(=O)NCCn1ccc2ccccc21 (centres unmarked) [SR-01000124163]
Lipophilic Efficiency (logD) ([1]; HEK Agonist Activity section): 1.45
Lipophilic Efficiency (logP) ([1]; HEK Agonist Activity section): 1.45
Averaged Max % Response (±St. Dev.) ([1]; HEK Agonist Activity section): −3.45 ± 3.02%
EC50 [1, 3]: > 14.1 µM
Efficiency Ligand [2]: 0.36
Hill Slope [2]: 1.37
Lipophilic Efficiency (logD) [2]: 2.59
Lipophilic Efficiency (logP) [2]: 2.59
EC50 ([2]; HEK-GPR139 cells): 1 µM
Averaged Max % Response (±St. Dev.) [2]: 90.02 ± 28.06%

COc1ccc2cc(CCNC(=O)/C=C\c3ccc4c(c3)OCO4)c(=O)[nH]c2c1 [SR-01000124392]
Lipophilic Efficiency (logD) ([1]; HEK Agonist Activity section): 2.31
Lipophilic Efficiency (logP) ([1]; HEK Agonist Activity section): 2.31
EC50 [1, 5]: > 14.1 µM
Averaged Max % Response (±St. Dev.) ([1]; HEK Agonist Activity section): 5.97 ± 7.64%
Efficiency Ligand [2]: 0.28
Hill Slope [2]: 0.49
Lipophilic Efficiency (logD) [2]: 3.17
Lipophilic Efficiency (logP) [2]: 3.17
EC50 ([2]; HEK-GPR139 cells): 2 µM
Averaged Max % Response (±St. Dev.) [2]: 80.01 ± 6.26%

COc1cc(C(=O)NCCn2ccc3ccccc32)cc(OC)c1OC [SR-01000124399]
Lipophilic Efficiency (logD) ([1]; HEK Agonist Activity section): 2.15
Lipophilic Efficiency (logP) ([1]; HEK Agonist Activity section): 2.15
Averaged Max % Response (±St. Dev.) ([1]; HEK Agonist Activity section): −5.54 ± 8.42%
EC50 [1, 3]: > 14.1 µM
Averaged Max % Response (±St. Dev.) [2]: 147.35 ± 21.79%
Lipophilic Efficiency (logD) ([2]; based on logD): 4.50
Lipophilic Efficiency (logP) ([2]; based on logP): 4.50
Hill Slope ([2]; fitted dose-response curve): 0.70
Efficiency Ligand ([2]; ligand efficiency): 0.39
EC50 [2, 4]: 0.0629 µM

O=C(NCCc1ccc(Cl)cc1)c1nnc(Cc2ccc(F)cc2)o1 [SR-01000125346]
Lipophilic Efficiency (logD) ([1]; HEK Agonist Activity section): 1.73
Lipophilic Efficiency (logP) ([1]; HEK Agonist Activity section): 1.73
Averaged Max % Response (±St. Dev.) ([1]; HEK Agonist Activity section): 18.06 ± 8.45%
EC50 [1, 3]: > 14.1 µM
Efficiency Ligand [2]: 0.34
Hill Slope [2]: 1.86
Lipophilic Efficiency (logD) [2]: 2.95
Lipophilic Efficiency (logP) [2]: 2.95
EC50 ([2]; HEK-GPR139 cells): 0.84 µM
Averaged Max % Response (±St. Dev.) [2]: 91.83 ± 43.39%

O=C(CN1CCN(Cc2ccccc2Cl)C1=O)NCc1ccccc1Cl [SR-01000125458]
Lipophilic Efficiency (logD) ([1]; HEK Agonist Activity): 1.94
Lipophilic Efficiency (logP) ([1]; HEK Agonist Activity): 1.94
Averaged Max % Response (±St. Dev.) ([1]; HEK Agonist Activity): −1.02 ± 2.16%
EC50 ([1]; Homo sapiens, HEK293, HEK Agonist Activity, parental non-transfected HEK cells): > 14.1 µM
Averaged Max % Response (±St. Dev.) [2]: 119.40 ± 41.91%
Lipophilic Efficiency (logD) ([2]; based on logD): 4.54
Lipophilic Efficiency (logP) ([2]; based on logP): 4.54
Hill Slope ([2]; fitted dose-response curve): 0.73
Efficiency Ligand ([2]; ligand efficiency): 0.40
EC50 [2, 4]: 0.0358 µM

O=C(CN1CCN(Cc2ccccc2Cl)C1=O)NC1CCCCCC1 [SR-01000125460]
Lipophilic Efficiency (logD) ([1]; HEK Agonist Activity section): 2.02
Lipophilic Efficiency (logP) ([1]; HEK Agonist Activity section): 2.02
EC50 [1, 5]: > 14.1 µM
Averaged Max % Response (±St. Dev.) ([1]; HEK Agonist Activity section): −2.02 ± 12.81%
Averaged Max % Response (±St. Dev.) [2]: 95.59 ± 27.48%
Lipophilic Efficiency (logD) ([2]; based on logD): 4.03
Lipophilic Efficiency (logP) ([2]; based on logP): 4.03
Hill Slope ([2]; fitted dose-response curve): 1.03
Efficiency Ligand ([2]; ligand efficiency): 0.38
EC50 [2, 4]: 0.141 µM

O=C(CN1CCN(Cc2ccccc2Cl)C1=O)NC1CCCCCCC1 [SR-01000125462]
Lipophilic Efficiency (logD) ([1]; HEK Agonist Activity section): 1.58
Lipophilic Efficiency (logP) ([1]; HEK Agonist Activity section): 1.58
EC50 [1, 5]: > 14.1 µM
Averaged Max % Response (±St. Dev.) ([1]; HEK Agonist Activity section): 6.02 ± 12.03%
Averaged Max % Response (±St. Dev.) [2]: 92.90 ± 12.57%
Lipophilic Efficiency (logD) ([2]; based on logD): 3.53
Lipophilic Efficiency (logP) ([2]; based on logP): 3.53
Hill Slope ([2]; fitted dose-response curve): 1.38
Efficiency Ligand ([2]; ligand efficiency): 0.37
EC50 [2, 4]: 0.159 µM

Cc1ccc(CCNC(=O)CN2CCN(Cc3ccccc3Cl)C2=O)cc1 [SR-01000125464]
Lipophilic Efficiency (logD) ([1]; HEK Agonist Activity section): 1.74
Lipophilic Efficiency (logP) ([1]; HEK Agonist Activity section): 1.74
Averaged Max % Response (±St. Dev.) ([1]; HEK Agonist Activity section): 5.57 ± 17.96%
EC50 [1, 3]: > 14.1 µM
Averaged Max % Response (±St. Dev.) [2]: 83.25 ± 20.00%
Lipophilic Efficiency (logD) ([2]; based on logD): 3.74
Lipophilic Efficiency (logP) ([2]; based on logP): 3.74
Hill Slope ([2]; fitted dose-response curve): 0.73
Efficiency Ligand ([2]; ligand efficiency): 0.35
EC50 [2, 4]: 0.143 µM

O=C(CN1CCN(Cc2ccccc2F)C1=O)NCCc1ccc(Cl)cc1 [SR-01000125584]
Lipophilic Efficiency (logD) ([1]; HEK Agonist Activity section): 2.11
Lipophilic Efficiency (logP) ([1]; HEK Agonist Activity section): 2.11
Averaged Max % Response (±St. Dev.) ([1]; HEK Agonist Activity section): 0.37 ± 17.31%
EC50 [1, 3]: > 14.1 µM
Averaged Max % Response (±St. Dev.) [2]: 103.06 ± 30.95%
Lipophilic Efficiency (logD) ([2]; based on logD): 4.59
Lipophilic Efficiency (logP) ([2]; based on logP): 4.59
Hill Slope ([2]; fitted dose-response curve): 0.81
Efficiency Ligand ([2]; ligand efficiency): 0.38
EC50 [2, 4]: 0.0471 µM

O=C(CN1CCN(Cc2ccc(F)cc2Cl)C1=O)NCc1ccccc1Cl [SR-01000125622]
Lipophilic Efficiency (logD) ([1]; HEK Agonist Activity section): 1.80
Lipophilic Efficiency (logP) ([1]; HEK Agonist Activity section): 1.80
Averaged Max % Response (±St. Dev.) ([1]; HEK Agonist Activity section): −10.20 ± 10.64%
EC50 [1, 3]: > 14.1 µM
Averaged Max % Response (±St. Dev.) [2]: 99.14 ± 16.79%
Lipophilic Efficiency (logD) ([2]; based on logD): 3.63
Lipophilic Efficiency (logP) ([2]; based on logP): 3.63
Hill Slope ([2]; fitted dose-response curve): 0.99
Efficiency Ligand ([2]; ligand efficiency): 0.35
EC50 [2, 4]: 0.208 µM

Cc1ccc(CN2CCN(CC(=O)NCCc3ccc(Cl)cc3)C2=O)c(Cl)c1 [SR-01000125626]
Lipophilic Efficiency (logD) ([1]; HEK Agonist Activity section): 1.51
Lipophilic Efficiency (logP) ([1]; HEK Agonist Activity section): 1.51
Averaged Max % Response (±St. Dev.) ([1]; HEK Agonist Activity section): −27.02 ± 6.51%
EC50 [1, 3]: > 14.1 µM
Efficiency Ligand [2]: 0.30
Hill Slope [2]: 0.73
Lipophilic Efficiency (logD) [2]: 2.72
Lipophilic Efficiency (logP) [2]: 2.72
Averaged Max % Response (±St. Dev.) [2]: 79.66 ± 15.90%

CC1CCCC(NC(=O)CN2CCN(Cc3ccc(F)cc3Cl)C2=O)C1C (centres unmarked) [SR-01000125648]
Lipophilic Efficiency (logD) ([1]; HEK Agonist Activity section): 1.67
Lipophilic Efficiency (logP) ([1]; HEK Agonist Activity section): 1.67
Averaged Max % Response (±St. Dev.) ([1]; HEK Agonist Activity section): 8.17 ± 5.14%
EC50 [1, 3]: > 14.1 µM
Efficiency Ligand [2]: 0.33
Hill Slope [2]: 0.84
Lipophilic Efficiency (logD) [2]: 3.13
Lipophilic Efficiency (logP) [2]: 3.13
EC50 ([2]; HEK-GPR139 cells): 0.49 µM
Averaged Max % Response (±St. Dev.) [2]: 98.80 ± 20.98%
